In US8450494B2, “Disubstituted benzamide derivatives as glucokinase (GK) activators” (Cadila Healthcare Limited, priority 2010, dated 2013):

Biological target: T1, glucokinase (GK) enzyme (Homo sapiens, UniProt P35557)
T1 sequence (P35557 1-465): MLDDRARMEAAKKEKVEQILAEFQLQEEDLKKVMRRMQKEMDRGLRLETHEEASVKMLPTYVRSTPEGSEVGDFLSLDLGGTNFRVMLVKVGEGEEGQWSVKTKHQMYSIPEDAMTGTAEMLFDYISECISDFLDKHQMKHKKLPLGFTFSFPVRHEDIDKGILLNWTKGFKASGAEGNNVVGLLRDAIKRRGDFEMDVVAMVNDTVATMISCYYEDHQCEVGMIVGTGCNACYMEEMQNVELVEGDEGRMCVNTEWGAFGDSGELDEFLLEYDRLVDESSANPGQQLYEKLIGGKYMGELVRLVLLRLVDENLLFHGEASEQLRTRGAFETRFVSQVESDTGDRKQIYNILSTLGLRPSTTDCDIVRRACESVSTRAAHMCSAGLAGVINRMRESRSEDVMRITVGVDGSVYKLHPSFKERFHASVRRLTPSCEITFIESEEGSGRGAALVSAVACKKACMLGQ
Experiment: In-vitro glucokinase (GK) enzyme activation assay (coupled with glucose-6-phosphate dehydrogenase, absorbance at 340)
Assay type: biochemical
Details: glucose 2.5 mM, ATP 1 mM; for activity at 0.1 µM / activity at 1 µM / activity at 5 µM / activity at 10 µM: read-out: % of GK activity wrt DMSO; for EC50: GK activation
Experimental: The compound of the invention was incubated with glucokinase (GK) enzyme (0.2 units) for 10 minutes in assay buffer at 26° C. After incubation, addition of glucose-6-phosphate dehydrogenase (2.5 units), ATP (1 mM) and glucose (2.5 mM). Absorbance is measured at 340 nm for 15 minutes with 10 second interval using UV transparent plate in kinetic mode on Spectramax-190 at 30° C.

| SMILES | activity at 0.1 µM (compound 0.1 uM) | activity at 1 µM (compound 1 uM) | activity at 5 µM (compound 5 uM) | activity at 10 µM (compound 10 uM) | EC50 | % of GK activity wrt DMSO (compound 0.1 uM) | % of GK activity wrt DMSO (compound 1 uM) | % of GK activity wrt DMSO (compound 5 uM) | % of GK activity wrt DMSO (compound 10 uM) |
| --- | --- | --- | --- | --- | --- | --- | --- | --- | --- |
| COC[C@H](C)Oc1cc(Oc2ccc(-c3nnc(C)o3)cc2)cc(C(=O)Nc2ncc(C#N)s2)c1 [Example 2.42, (S)—N-(5-Cyanothiazol-2-yl)-3-((1-methoxypropan-2-yl)oxy)-5-(4-(5-methyl-1,3,4-oxadiazol-2-yl)phenoxy)benzamide] | 126% | 223% | 306% | 333% | – | – | – | – | – |
| COCC(C)Oc1cc(Oc2ccc(-c3nnc(CC(C)C)o3)cc2)cc(C(=O)Nc2nccs2)c1 (stereo not drawn) [Example 2.22, 3-(4-(5-Isobutyl-1,3,4-oxadiazol-2-yl)phenoxy)-5-((1-methoxypropan-2-yl)oxy)-N-(thiazol-2-yl)benzamide] | 153% | 323% | 436% | 418% | – | – | – | – | – |
| COC[C@H](C)Oc1cc(Oc2ccc(-c3nnc(C)o3)cc2)cc(C(=O)Nc2nccs2)c1 [Example 2.1, (S)-3-(1-Methoxypropan-2-yloxy)-5-(4-(5-methyl-1,3,4-oxadiazol-2-yl)phenoxy)-N-(thiazol-2-yl)benzamide] | 271% | 267% | 271% | 282% | 14 nM | – | – | – | – |
| Cc1nnc(-c2ccc(Oc3cc(OCC4CC4)cc(C(=O)Nc4nccs4)c3)cc2)o1 [Example 1.5, 3-(Cyclopropylmethoxy)-5-(4-(5-methyl-1,3,4-oxadiazol-2-yl)phenoxy)-N-(thiazol-2-yl)benzamide] | 234% | 292% | 305% | 293% | 88 nM | – | – | – | – |
| COC[C@H](C)Oc1cc(Oc2ccc(-c3nnc(C)o3)cc2)cc(C(=O)Nc2nc(C)cs2)c1 [Example 2.20, (S)-3-((1-Methoxypropan-2-yl)oxy)-5-(4-(5-methyl-1,3,4-oxadiazol-2-yl)phenoxy)-N-(4-methylthiazol-2-yl)benzamide] | 251% | 405% | 436% | 408% | – | – | – | – | – |
| COCC(C)Oc1cc(Oc2ccc(-c3nnc(C4CC4)o3)cc2)cc(C(=O)Nc2nccs2)c1 (stereo not drawn) [Example 2.28, 3-(4-(5-Cyclopropyl-1,3,4-oxadiazol-2-yl)phenoxy)-5-((1-methoxypropan-2-yl)oxy)-N-(thiazol-2-yl)benzamide] | 223% | 450% | 493% | 488% | – | – | – | – | – |
| C=CCCOc1cc(Oc2ccc(-c3nnc(C)o3)cc2)cc(C(=O)Nc2nc(C)cs2)c1 [Example 2.12, 3-(But-3-en-1-yloxy)-5-(4-(5-methyl-1,3,4-oxadiazol-2-yl)phenoxy)-N-(4-methylthiazol-2-yl)benzamide] | 140% | 176% | 302% | 144% | – | – | – | – | – |
| COCC(C)Oc1cc(Oc2ccc(-c3nnc(C)o3)cc2)cc(C(=O)Nc2ncc(C)s2)c1 (stereo not drawn) [Example 2.9, 3-((1-Methoxypropan-2-yl)oxy)-5-(4-(5-methyl-1,3,4-oxadiazol-2-yl)phenoxy)-N-(5-methylthiazol-2-yl)benzamide] | 251% | 278% | 283% | 279% | – | – | – | – | – |
| C=CCOc1cc(Oc2ccc(-c3nnc(C)o3)cc2)cc(C(=O)Nc2nccs2)c1 [Example 2.4, 3-(Allyloxy)-5-(4-(5-methyl-1,3,4-oxadiazol-2-yl)phenoxy)-N-(thiazol-2-yl)benzamide] | 240% | 284% | 324% | 311% | 64 nM | – | – | – | – |
| Cc1nnc(-c2ccc(Oc3cc(OCC4CCCCC4)cc(C(=O)Nc4nccs4)c3)cc2)o1 [Example 2.2, 3-(Cyclohexylmethoxy)-5-(4-(5-methyl-1,3,4-oxadiazol-2-yl)phenoxy)-N-(thiazol-2-yl)benzamide] | 146% | 178% | 193% | 192% | 316 nM | – | – | – | – |
| Cc1nnc(-c2ccc(Oc3cc(OCC4CCOCC4)cc(C(=O)Nc4nccs4)c3)cc2)o1 [Example 2.6] | – | – | – | – | – | 128.2% | 196.4% | 251.8% | 249.3% |
| COCC(C)Oc1cc(Oc2ccc(-c3nnc(C)o3)cc2)cc(C(=O)Nc2ncc(C(=O)O)s2)c1 (stereo not drawn) [Example 2.18, 2-{3-[(1-Methoxypropan-2-yl)oxy]-5-[4-(5-methyl-1,3,4-oxadiazol-2-yl)phenoxy]benzamido}thiazole-5-carboxylic acid] | 105% | 149% | 251% | 260% | – | – | – | – | – |
| COCC(C)Oc1ccc(Oc2ccc(-c3nnc(C)o3)cc2)cc1C(=O)Nc1nccs1 (stereo not drawn) [Example 1.3, 2-(1-Methoxypropan-2-yloxy)-5-(4-(5-methyl-1,3,4-oxadiazol-2-yl)phenoxy)-N-(thiazol-2-yl)benzamide] | 99.8% | 96.8% | 110% | 107% | – | – | – | – | – |
| COC[C@H](C)Oc1cc(Oc2ccc(-c3nnc(C)o3)cc2)cc(C(=O)Nc2ncc(C)s2)c1 [Example 2.11, (S)-3-((1-Methoxypropan-2-yl)oxy)-5-(4-(5-methyl-1,3,4-oxadiazol-2-yl)phenoxy)-N-(5-methylthiazol-2-yl)benzamide] | 235% | 258% | 191% | 243% | – | – | – | – | – |
| Cc1nnc(-c2ccc(Oc3cc(OC(C)C4CC4)cc(C(=O)Nc4nccs4)c3)cc2)o1 (stereo not drawn) [Example 1.4, 3-(1-Cyclopropylethoxy)-5-(4-(5-methyl-1,3,4-oxadiazol-2-yl)phenoxy)-N-(thiazol-2-yl)benzamide] | 282% | 313% | 314% | 311% | 23 nM | – | – | – | – |
| COCC(C)Oc1cc(Oc2ccc(-c3nnc(C)o3)cc2)cc(C(=O)Nc2nc(C)cs2)c1 (stereo not drawn) [Example 2.10, 3-((1-Methoxypropan-2-yl)oxy)-5-(4-(5-methyl-1,3,4-oxadiazol-2-yl)phenoxy)-N-(4-methylthiazol-2-yl)benzamide] | 310% | 370% | 368% | 356% | – | – | – | – | – |
| CCOC(=O)c1csc(NC(=O)c2cc(Oc3ccc(-c4nnc(C)o4)cc3)cc(OC(C)COC)c2)n1 (stereo not drawn) [Example 2.19, Ethyl 2-{3-[(1-methoxypropan-2-yl)oxy]-5-[4-(5-methyl-1,3,4-oxadiazol-2-yl)phenoxy]benzamido}thiazole-4-carboxylate] | 106% | 188% | 318% | 344% | – | – | – | – | – |
| CCc1nnc(-c2ccc(Oc3cc(OC(C)COC)cc(C(=O)Nc4nccs4)c3)cc2)o1 (stereo not drawn) [Example 2.25, 3-(4-(5-Ethyl-1,3,4-oxadiazol-2-yl)phenoxy)-5-((1-methoxypropan-2-yl)oxy)-N-(thiazol-2-yl)benzamide] | 224% | 384% | 439% | 418% | – | – | – | – | – |
| C=CCOc1cc(Oc2ccc(-c3nnc(C)o3)cc2)cc(C(=O)Nc2ncc(C)s2)c1 [Example 2.14, 3-(Allyloxy)-5-(4-(5-methyl-1,3,4-oxadiazol-2-yl)phenoxy)-N-(5-methylthiazol-2-yl)benzamide] | 116% | 184% | 241% | 215% | – | – | – | – | – |
| COCC(C)Oc1cc(Oc2ccc(-c3nnc(C)o3)cc2)cc(C(=O)Nc2nc(C(=O)O)cs2)c1 (stereo not drawn) [Example 2.17, 2-{3-[(1-Methoxypropan-2-yl)oxy]-5-[4-(5-methyl-1,3,4-oxadiazol-2-yl)phenoxy]benzamido}thiazole-4-carboxylic acid] | 113% | 170% | 306% | 350% | – | – | – | – | – |
| C=CCCOc1cc(Oc2ccc(-c3nnc(C)o3)cc2)cc(C(=O)Nc2ncc(C)s2)c1 [Example 2.13, 3-(But-3-en-1-yloxy)-5-(4-(5-methyl-1,3,4-oxadiazol-2-yl)phenoxy)-N-(5-methylthiazol-2-yl)benzamide] | 112% | 180% | 233% | 215% | – | – | – | – | – |
| COC[C@@H](C)Oc1cc(Oc2ccc(-c3nnc(C)o3)cc2)cc(C(=O)Nc2nccs2)c1 [Example 2.15, (R)-3-(1-Methoxypropan-2-yloxy)-5-(4-(5-methyl-1,3,4-oxadiazol-2-yl)phenoxy)-N-(thiazol-2-yl)benzamide] | 105% | 164% | 239% | 266% | – | – | – | – | – |
